Series [1] relates to heart sections. Put plainly: Masson's Trichrome staining of heart sections (fibrosis). The format is in vivo, mouse. On the procedure:
FIGS. 6a-e: a. Schematic of chronic doxorubicin treatment protocol. All mice received a baseline MRI scan first. Tamoxifen was then administered by gavage at a dose of 25 mg/kg, once a day for 5 consecutive days. […] After the last MRI scan, mice were sacrificed and the hearts were removed and examined for histological changes and Top2b expression. b. RT-qPCR of genes involved in mitochondrial biogenesis. Mice were treated with doxorubicin (5 mg/kg) once a week for 5 weeks. Cardiomyocytes were isolated from the heart 72 hr after the last dose. Total RNA was extracted for RTqPCR analysis of genes important for the function and structure of the mitochondria. For each mRNA shown relative expression is graphed for Top2b^+/+ Control, Top2b^+/+ Dox, Top2b^Δ/Δ Control, and Top2b^Δ/Δ Dox (from left to right). One way ANOVA was used to determine statistical significance (p<0.05). Error bars indicated STDEV. The asterisks indicated a significant difference (p<0.05). c. ROS production and quantitation. Representative images of heart sections stained with Dihydroethidium (DHE), which, after oxidation, intercalated into DNA and stained the nuclei red. Mice were treated with doxorubicin (5 mg/kg) once a week for 5 weeks. […] The numbers of DHE-positive and total nuclei were counted as described and the percentage of DHE-positive nuclei was determined. […]

Series [2] has as its system heart sections. Put plainly: Transmission electron microscopy of heart sections. The format is in vivo, mouse. Conditions: for Ultra-structural changes of mitochondria (electron microscopy): doxorubicin 25 mg/kg for 72 h. The procedure:
To examine doxorubicin-induced ultra-structural damages, wildtype and mice with Top2 deletion in the cardiomyocytes were treated with doxorubicin (25 mg/kg for 72 h or 5 mg/kg once a week for 5 weeks) or drug vehicle. Heart was quickly removed. After rinse with PBS and blot dried, 10-20 pieces of tissue samples (1×2×2 mm) were taken from the myocardium of the left ventricle. Tissue samples were immediately fixed in 3% phosphate glutaraldehyde. Before sectioning, tissue samples were washed in […] sodium phosphate buffer (pH 7.3), post fixed in 1% osmium tetroxide for 1 h and dehydrated through a series of graded alcohol. Then tissue samples were infiltrated with acetone and phlybed 812 plastic resin and embedded in plastic block molds with 100% polybed 812. One micron sections (thick sections) were cut on ultra microtome and placed on glass slides and stained with toluidine blue. Ultra thin sections (80 nm) were cut from sample blocks using a RMC MTXL Ultra Microtome and mounted on 100 mesh copper grids. Grids were stained with 2% uranyl acetate and Reynold's lead stain. 9 sections were analyzed from each animal heart. Grids were examined with a JEOL 1230 electron microscope and images were capture with an AMTV 600 imaging system.

`COc1cccc2c1C(=O)c1c(O)c3c(c(O)c1C2=O)C[C@@](O)(C(=O)CO)C[C@@H]3O[C@H]1C[C@H](N)[C@H](O)[C@H](C)O1` [doxorubicin]: the “Fibrosis in the hearts (Masson's Trichrome)” value with heart sections [1] (Top2b+/+ mice, doxorubicin 5 mg/kg once a week for 5 weeks, hearts 72 h after last dose) is given as “patchy fibrosis”. Further, in the series on heart sections [1] (Top2bΔ/Δ hearts, chronic doxorubicin 5 mg/kg once a week for 5 weeks), the “Fibrosis and other pathological changes after chronic treatment, relative to Top2b+/+ hearts” value is listed as “much less so”. The “Ultrastructural changes in mitochondria (EM)” value in the series on heart sections [2] (Top2b+/+ hearts, chronic doxorubicin 5 mg/kg once a week for 5 weeks) is “ultrastructural changes in mitochondria”. The “Ultra-structural changes of mitochondria (electron microscopy)” value is “marked mitochondria damage and vacuolization” with heart sections [2] (Top2b+/+ mouse heart); “minimal ultra-structural changes” with heart sections [2] (Top2bΔ/Δ heart).

For the origin of these results see patent US9169509B2, “Topoisomerase 2b as a predictor of susceptibility to anthracycline-induced cardiotoxicity” (Board of Regents, The University of Texas System, priority 2013, dated 2015).
